Experimental data as given in US12178800B2, “Sulforaphane-melatonin-like compound” (priority 2018, dated 2024).

Tests used:
[1] = tested on: ICR mice; assay: X-ray-induced oral mucositis in mice: survival and behaviour; assay type: in vivo
Experimental: In a second example for illustrating embodiments of the present invention, six-week-old ICR mice (30-40 g) obtained from Institute of Animal Breeding and Genetics, University of Gottingen, Germany were used. The animals were housed in a room maintained at 22±2° C. under a 12-h light-dark cycle with lights on at 7:00 a.m. Mice were fed a standard rodent diet and had free access to water. In addition, no antibiotic supplements were used. All animal experiments were performed in compliance to The German Animal Welfare Act. The mice (n=20 per group) were anesthetized (pentobarbital sodium, 50 mg/kg body weight, i.p.) and then irradiated. Mice had to be irradiated only at the tip of the tongue, so the rest of the body was shielded with a lead device (thickness, 0.5 mm). The tongue was fixed to the outer surface of the lead device using adhesive tape and irradiated with a single radiation dose of 20 Gy. Radiation was generated using a 150 kV potential (20 mA) X-ray source at a focal distance of 350 mm and beam-hardened by a 1.0-mm aluminum filtration system (MBR-1520R-3; Hitachi, Tokyo, Japan). The dose rate was 5.1 Gy/min. The 6OHM-6-HITC compound was dissolved in a small volume of 1 M NaOH solution. The pH was adjusted to 7 with 1 M HCL. […] The body weight was recorded and the tongues were observed daily after irradiation. […]

[2] = tested on: mouse tongues; assay: X-ray-induced oral mucositis in mice: oral mucositis score; assay type: in vivo, ICR mice
Experimental: In a second example for illustrating embodiments of the present invention, six-week-old ICR mice (30-40 g) obtained from Institute of Animal Breeding and Genetics, University of Gottingen, Germany were used. The animals were housed in a room maintained at 22±2° C. under a 12-h light-dark cycle with lights on at 7:00 a.m. Mice were fed a standard rodent diet and had free access to water. In addition, no antibiotic supplements were used. All animal experiments were performed in compliance to The German Animal Welfare Act. The mice (n=20 per group) were anesthetized (pentobarbital sodium, 50 mg/kg body weight, i.p.) and then irradiated. Mice had to be irradiated only at the tip of the tongue, so the rest of the body was shielded with a lead device (thickness, 0.5 mm). The tongue was fixed to the outer surface of the lead device using adhesive tape and irradiated with a single radiation dose of 20 Gy. Radiation was generated using a 150 kV potential (20 mA) X-ray source at a focal distance of 350 mm and beam-hardened by a 1.0-mm aluminum filtration system (MBR-1520R-3; Hitachi, Tokyo, Japan). The dose rate was 5.1 Gy/min. The 6OHM-6-HITC compound was dissolved in a small volume of 1 M NaOH solution. The pH was adjusted to 7 with 1 M HCL. The concentration was adjusted to 3 mg/mL or 15 mg/mL in 0.9% (physiologic) saline solution. The body weight was recorded and the tongues were observed daily after irradiation. 6OHM-6-HITC was injected via the intraperitoneal route 30 min before irradiation. The control group was irradiated but without administering the 6OHM-6-HITC compound.
The scoring of oral mucositis was based on a modification of the method of Sonis et al. To assess the severity of oral mucositis, mice were anesthetized with isoflurane every day. The oral mucositis score was: 0=normal; 1=partial hyperemia, erythema and swelling; 2=overall hyperemia, erythema and swelling; 3=epidermolysis, hyperemia and erythema; 4=extensive epidermolysis and bleeding; 5=bleeding and abscesses. Myeloperoxidase (MPO) activity is a marker for neutrophils in inflamed tissue. MPO activity was measured in mouse tongues using a modification of the method of Chen et al. After mice had been killed by cervical dislocation 12 days after irradiation, tongue samples (n=10 per group) were removed and stored at −70° C. until required for assay. […] MPO activity was measured using a Microplate Reader (NJ-2300; Biotec, Tokyo, Japan) at 450 nm. MPO activity was calculated by measuring the slope of absorbance calibrated using MPO standards (Wako Biochemicals) and expressed as MPO/g tongue. […] TBARS levels were measured using the Microplate Reader (Biotec) at 540 nm. TBARS levels were calculated by measuring the slope of absorbance calibrated using TBARS standards and expressed as TBARS/g tongue. […]

[3] = tested on: biopsy wound; assay: Healing of biopsy wounds in irradiated skin; assay type: in vivo, Gottingen mini-pigs; details: biopsy wound 3 days after irradiation
[4] = tested on: cyclooxygenase-2 (COX-2); assay: COX-2 immunohistochemistry of irradiated skin; assay type: in vivo, Gottingen mini-pigs; details: 7, 21 and 35 days after irradiation
Experimental: After incubation in normal horse serum for 60 min to prevent nonspecific binding, the skin sections were incubated with mouse anti-nuclear factor (NF)-κB (sc-109, 1:200; Santa Cruz Biotechnology, Santa Cruz, CA, USA) and mouse anti-COX-2 (18-7379, 1:200; Zymed, USA) in phosphate buffered saline-Tween (PBS-T overnight at 4° C. The sections were subsequently incubated with biotinylated horse anti-mouse IgG (VECTASTAIN Elite ABC Kit; Vector Laboratories, USA). The immunoreactivity was assessed using the avidin-biotin peroxidase complex (VECTASTAIN Elite ABC Kit; Vector Laboratories). The peroxidase reaction was developed using a diaminobenzidine substrate kit (DAB Substrate Kit SK-4100; Vector Laboratories). As a control, the primary antibodies were omitted from the immunohistochemical analysis of a few test sections in each experiment. The sections were then counterstained with hematoxylin before being mounted.

[5] = tested on: mouse tongues; assay: Histopathology (H&E) of tongue specimens after X-ray irradiation; assay type: in vivo, ICR mice; details: 12 days post-irradiation

## COc1cc2c(CCCCN=C=S)c[nH]c2cc1O [6OHM-6-HITC]
[1]; 300 mg/kg i.p.
  behavioral disorders: not observed
[1]; 30 and 300 mg/kg i.p. 30 min before 20 Gy irradiation of the tongue
  survival after X-ray irradiation: significant difference in survival was not found
[2]; 30 mg/kg i.p.
  total oral mucositis score between day-0 and day-12 vs. control group: significantly lower
[2]; 300 mg/kg i.p.
  total oral mucositis score between day-0 and day-12 vs. control group: significantly lower
[2]; 300 mg/kg i.p., day-10
  oral mucositis score vs. control group: significantly lower
[2]; 300 mg/kg i.p., day-12
  oral mucositis score vs. control group: significantly lower
[3]
  healing of the biopsy wound: attenuated the radiation-induced delayed healing
[4]
  COX-2 expression in the irradiated skin vs. vehicle-treated skin: lower
[5]
  degree of epidermolysis of the tongue: preserved
  infiltration of inflammatory cells: decreased
